Where two headings read alike, the source gives them in different places.
Key:
interleukin 1β (IL-1β) = test: Inflammatory cytokines in cell supernatant (Mosaic ELISA microarray): IL-1β; assay type: cell-based, Human; details: for IL-1β ng/(ml* No. of cells from photo) ± SD: 24 hours
Experimental: (§1) The inflammatory cytokines, CD40 ligand (CD40L), interferon γ (INF-γ), interleukin 1α (IL-1α), interleukin 1β (IL-1β), interleukin 6 (IL-6), interleukin 8 (IL-8), interleukin 17 (IL-17) and tumour necrosis factor α (TNF-α) were determined qualitatively and quantitatively. Each measurement was performed in duplicate using a Mosaic™ ELISA protein microarray assay system from R&D System in accordance with the supplier's instructions. Furthermore, with the aim of obtaining a correlation model between light signal intensity and cytokine concentration, a calibration curve using 6 concentrations was performed for each of them. Analysis of the data was performed using the dedicated Q-View™ Imager software package from Quansys Biosciences

HDF cells [1] = test: Evaluation of cell proliferation (counting of Sirius Red stained cells in photographs); details: 24 hours
[2] = test system: Human dermal fibroblasts (HDF); test: Mitochondrial dehydrogenase activity (WST-1 formazan assay) in HDF cells; details: for Revitalizing agent: 24 hours; for activity at 1 µM / activity at 10 µM: Homo sapiens, Fibroblast, read-out: % mitochondrial dehydrogenase activity ± SD
Experimental: Human dermal fibroblasts were used for assay at the 3rd T75 passage.
Mitochondrial dehydrogenase activity was measured in HDF, HEK and HUVEC cells by means of the formazan assay, using the WST-1 kit from Roche Diagnostic in accordance with the supplier's instructions. Briefly: the reagent was added (10 µl per well), the incubation was carried out for a further 2 hours or 4 hours, and, at the end of this time, the absorbance was read for 1 s at a wavelength of 450 nm in a Perkin Elmer Victor 2 Wallac microplate reader.
The activity percentage (% mitochondrial dehydrogenase activity) is defined as: % mitochondrial dehydrogenase activity = ((absorbance of treated cells - absorbance of blank) / (absorbance of control - absorbance of blank)) x 100.
The tests were performed with observations after 18 hours, seeding 8,000 cells per well, and after 42 hours, seeding 2,000 cells per well. Furthermore, in order to better analyze the dose/response curves for dihydroberberine, canadine and stylopine, curves were collected at 11 concentrations by seeding 2,000 cells per well with 46 hours incubation.
Dose/response curves are plotted at 6 concentrations. The tests were performed with observations after 24 hours, seeding 8,000 cells per well.

[3] = test system: collagen produced by HDF cells; test: Quantity of collagen produced by the cells (elution of Sirius Red)
interleukin 6 (IL-6) = test: Inflammatory cytokines in cell supernatant (Mosaic ELISA microarray): IL-6; assay type: cell-based, Human; details: for IL-6 ng/(ml* No. of cells from photo) ± SD: 24 hours; for IL-6 production (effect in words): 1-10 µM
Experimental: as §1

HDF cells [4] = test: Summary of uses and toxic effects deduced from the cell assays (Table 1); assay type: cell-based, Human; details: for Anti-fibrotic (prevention of scar formation, also from acne) / Cytoprotective (antioxidant, anti-inflammatory and anti-ageing; useful also in the treatment of acne) / Cytotoxic / Irritant / Wound-healing: 24 hours
Experimental: Antiradical (skin protective): this is deduced from the free radical scavenger effects.
Revitalizing: this is deduced from the increased mitochondrial dehydrogenase effect.
Cytoprotective, with regard to oxidative damage (antioxidant, anti-inflammatory and anti-ageing): this is deduced from antagonising the stimulation of IL-1β and/or IL-6 induced by 100 µM H2O2 and from the absence of changes in cell morphology similar to the ones due to cell senescence.
Wound healing: this is deduced from the effect of inhibiting the production of IL-1β and by the effect of stimulating cell proliferation under standard growth conditions.
Cytotoxicity: this is deduced from the effect of reducing mitochondrial dehydrogenase activity or from the presence of morphologies characteristic of cell senescence.
Irritation: this is deduced from the effect of increased production of IL-6 and/or IL-1β under standard growth conditions.
Said uses in the fields of medicine and cosmetics or the toxic effects of the substances of the invention at a given dosage, for 24 hours, are summarized in Table 1 below.

[5] = Anti-radical activity (decay of the DPPH radical); assay type: biochemical; details: for Anti-radical (skin protective): 24 hours
Experimental: With regard to assays aimed at evaluating anti-radical activity, a chemical test was used where the decay of the diphenylpicrylhydrazyl (DPPH) radical is assessed in the absence or in the presence of the test substances. Indeed, the DPPH radical is used to test the ability of substances to act as free radical scavengers. DPPH in solution has a purple colour with a maximum absorbance peak at 517 nm which changes to yellow-colourless when this radical extracts a hydrogen atom from a radical scavenger to give rise to the reduced form DPPH-H. The assay has been conducted in quadruplicate in 96 well microplates (SARSTEDT Tissue Culture Plate 96-well flat bottom cell+). 50 µl of an ethanol solution of the test substance at 2X concentration and then 50 µl of a 200 µM solution of DPPH (MW 168,18, Aldrich 2,2-di(4-tert-octylphenyl)-1-picrylhydrazyl, free radical Lot# MKBF7574V Cat N° 257621-100 mg) have been added to each well of the microplate. A positive control consisting of 0.1 mM vitamin C and a negative control consisting of ethanol alone were included in each microplate. After 30 minutes from the addition of DPPH, photographs of the plates were taken (Canon PowerShot A610 5.0 Mpixels) and read spectrophotometrically at 530 nm.
Based on the analysis of the results reported in Table 9, some substances were selected for further characterisation of their anti-radical activity. For the selected substances, dose-activity curves were obtained and the IC50 value were computed using a non-linear regression model with the Hill equation at variable slope. Such substances had been selected due to both their anti-radical potential and the easiness of their isolation/production. The selection of substances was made in view of cosmetics applications. Moreover their activity on human dermal fibroblasts (HDF) is expected to be useful also for the development of dermatological medications. The selected substances are discussed below.

[6] = Dose 1 µm (coptisine: 1 pm [sic])

**Q.** What does the source list for COc1ccc2c(c1OC)CN1CCc3cc4c(cc3[C@@H]1C2)OCO4 [canadine]?
**A.** IL-1β production (effect in words) (interleukin 1β (IL-1β); 1 µM, 34 ng/ml TGF-β1): antagonizes the production of IL-1β; IL-1β ng/(ml* No. of cells from photo) ± SD (interleukin 1β (IL-1β); 1 µM, 34 ng/ml TGF-β1): 116±19 ng/(ml* No. of cells from photo); IL-1β production (effect in words) (interleukin 1β (IL-1β); 1 µM, 100 µM H2O2): antagonizes the production of IL-1β; IL-1β ng/(ml* No. of cells from photo) ± SD (interleukin 1β (IL-1β); 1 µM, 100 µM H2O2): 90±3 ng/(ml* No. of cells from photo); IL-1β ng/(ml* No. of cells from photo) ± SD (interleukin 1β (IL-1β); 1 µM, Standard conditions): 81±2 ng/(ml* No. of cells from photo); IL-1β production (effect in words) (interleukin 1β (IL-1β); 1 µM, standard conditions): inhibits the production of IL-1β; IL-1β production (effect in words) (interleukin 1β (IL-1β); 10 µM, 34 ng/ml TGF-β1): antagonizes the production of IL-1β; IL-1β ng/(ml* No. of cells from photo) ± SD (interleukin 1β (IL-1β); 10 µM, 34 ng/ml TGF-β1): 173±14 ng/(ml* No. of cells from photo); IL-1β production (effect in words) (interleukin 1β (IL-1β); 10 µM, 100 µM H2O2): antagonizes the production of IL-1β; IL-1β ng/(ml* No. of cells from photo) ± SD (interleukin 1β (IL-1β); 10 µM, 100 µM H2O2): 132±138 ng/(ml* No. of cells from photo); IL-1β ng/(ml* No. of cells from photo) ± SD (interleukin 1β (IL-1β); 10 µM, Standard conditions): 109±1 ng/(ml* No. of cells from photo); IL-1β production (effect in words) (interleukin 1β (IL-1β); 10 µM, standard conditions): stimulates the production of IL-1β; No. of cells from photo ± SD (HDF cells [1]; 1 µM, 34 ng/ml TGF-β1): 206±40; No. of cells from photo ± SD (HDF cells [1]; 1 µM, 100 µM H2O2): 253±32; No. of cells from photo ± SD (HDF cells [1]; 1 µM, Standard conditions): 207±12; No. of cells from photo ± SD (HDF cells [1]; 10 µM, 34 ng/ml TGF-β1): 138±3; No. of cells from photo ± SD (HDF cells [1]; 10 µM, 100 µM H2O2): 188±25; No. of cells from photo ± SD (HDF cells [1]; 10 µM, Standard conditions): 138±5; concentrations below which no significant effects on mitochondrial dehydrogenase activity are shown [2]: below 0.1 µM; Revitalizing agent [2, 6]: Yes; Revitalizing agent ([2]; Dose 10 µm): Yes; activity at 1 µM ([2]; 18 h): 127 ± 3.64%; activity at 10 µM ([2]; 18 h): 130 ± 32.4%; activity at 1 µM ([2]; 42 h): 101 ± 10.6%; activity at 10 µM ([2]; 42 h): 124 ± 5.34%; activity at 1 µM ([2]; 46 h): 106 ± 5.25%; activity at 10 µM ([2]; 46 h): 130 ± 11.1%; mitochondrial dehydrogenase activity (effect in words) ([2]; between 0.1 and 100 µM, exposure time 18 and 42 h): tendency to increase in a dose-dependent manner; mitochondrial dehydrogenase activity (effect in words) ([2]; fibroblast cells, higher doses): inhibit mitochondrial dehydrogenase activity; mitochondrial dehydrogenase activity (effect in words) ([2]; fibroblast cells, low dosage): stimulate mitochondrial dehydrogenase activity; collagen production (effect in words) ([3]; 1 µM, standard conditions): no evident effect on the modulation of collagen production; collagen production (effect in words) ([3]; 10 µM, standard conditions): collagen production stimulation effect; collagen production (effect in words) ([3]; 1-10 µM (1 µM and 10 µM), 34 ng/ml TGF-β1): antagonizes the stimulation of collagen induced by 34 ng/ml TGF-β1; collagen production (effect in words) ([3]; 1-10 µM (1 µM and 10 µM), 100 µM H2O2): inhibits collagen production; IL-6 ng/(ml* No. of cells from photo) ± SD (interleukin 6 (IL-6); 1 µM, 34 ng/ml TGF-β1): 451±121 ng/(ml* No. of cells from photo); IL-6 ng/(ml* No. of cells from photo) ± SD (interleukin 6 (IL-6); 1 µM, 100 µM H2O2): 584±19 ng/(ml* No. of cells from photo); IL-6 ng/(ml* No. of cells from photo) ± SD (interleukin 6 (IL-6); 1 µM, Standard conditions): 405±8 ng/(ml* No. of cells from photo); IL-6 ng/(ml* No. of cells from photo) ± SD (interleukin 6 (IL-6); 10 µM, 34 ng/ml TGF-β1): 724±43 ng/(ml* No. of cells from photo); IL-6 ng/(ml* No. of cells from photo) ± SD (interleukin 6 (IL-6); 10 µM, 100 µM H2O2): 718±63 ng/(ml* No. of cells from photo); IL-6 ng/(ml* No. of cells from photo) ± SD (interleukin 6 (IL-6); 10 µM, Standard conditions): 508±43 ng/(ml* No. of cells from photo); IL-6 production (effect in words) (interleukin 6 (IL-6); 34 ng/ml TGF-β1): antagonizes the production of IL-6; IL-6 production (effect in words) (interleukin 6 (IL-6); 100 µM H2O2): antagonizes the production of IL-6; IL-6 production (effect in words) (interleukin 6 (IL-6); standard conditions): inhibits the production of IL-6; Anti-fibrotic (prevention of scar formation, also from acne) (HDF cells [4]; [6]): Yes (↓collagen, ↓IL-6, ↓IL-1β); Cytoprotective (antioxidant, anti-inflammatory and anti-ageing; useful also in the treatment of acne) (HDF cells [4]; [6]): Yes (↓IL-6, ↓IL-1β); Cytotoxic (HDF cells [4]; [6]): No; Irritant (HDF cells [4]; [6]): No; Wound-healing (HDF cells [4]; [6]): Yes (↓IL-1β); Anti-fibrotic (prevention of scar formation, also from acne) (HDF cells [4]; Dose 10 µm): No; Cytoprotective (antioxidant, anti-inflammatory and anti-ageing; useful also in the treatment of acne) (HDF cells [4]; Dose 10 µm): No; Cytotoxic (HDF cells [4]; Dose 10 µm): No; Irritant (HDF cells [4]; Dose 10 µm): Yes (↓IL-1β); Wound-healing (HDF cells [4]; Dose 10 µm): No; concentrations at which no toxic (cytotoxic and irritant) effects are shown (HDF cells [4]; exposure for 24 hours): less than or equal to 1 µM; % DPPH activity ([5]; 1 mM, 30 minutes): 103%; Anti-radical (skin protective) [5, 6]: No; Anti-radical (skin protective) ([5]; Dose 10 µm): No

**Q.** For O=C1O[C@H]([C@@H](O)CO)C(O)=C1O [vitamin C, reference compound], which “% DPPH activity” value ([5]; 0.1 mM, positive control) is on record?
**A.** The value was 0%.
